Holding throughout (format): cell-based
The target of one assay is T1, μ-opioid receptors (MOR) (Homo sapiens, UniProt P35372).
T1 construct: host or cells: HEK293
Nature of the assay: MOR activity test: HEK293/MOR/CRE luciferase reporter, agonizing MOR and affecting downstream cAMP levels. The following applies: for Emax: HEK293, maximum effect of TRV-130 is 100%, read-out: Emax on agonizing MOR receptor and affecting cAMP levels. An excerpt: The compounds of the present invention can activate μ-opioid receptors (MOR). Activated MOR can regulate intracellular cAMP levels, and cAMP enters the nucleus and binds to the CRE region of the reporter gene luciferase, thereby initiating the expression of the reporter gene. Luciferase can react with its substrate to emit fluorescence, and the measured fluorescence signals reflect the agonistic activity of the compounds.
The activity of the test example compounds on agonizing MOR and affecting downstream cAMP levels was tested by the following method.
MOR/pcDNA3.1 (+) and CRE/pGL4.29 were transferred into HEK293 cells. G418 and hygromycin were added into the culture medium, and HEK293/MOR/CRE monoclonal cell lines were screened in a 96-well cell culture plate.
HEK293/MOR/CRE monoclonal cells were cultured in a DMEM/high glucose medium (10% FBS, 1 mg/ml G418, 200 μg/ml hygromycin, mixed uniformly), and passaged every 3 days. On the day of the experiment, a cell suspension was prepared with a fresh cell medium, added to a 96 well plate (BD, #356692) with 20,000 cells/well, and incubated in 5% CO2 at 37° C. On the second day, the compound was dissolved in pure DMSO at a concentration of 20 mM, then formulated with DMSO to a first concentration of 4 mM and diluted in 10 fold concentration gradient to 6 concentrations. Then, 90 μl of DMSO was added to blank and control wells. Then, formulated compound was prepared by adding 2.5 μl of the compound solutions formulated in DMSO at a gradient concentration to 97.5 μl of a fresh cell culture medium containing 5 μM foscolin. Then, 10 μl of the formulated compound was added to the cell culture plate to make the final concentration of the compound 10000, 1000, 100, 10, 1, 0.1, or 0.01 nM, and the plate was incubated at 37° C., in 5% CO2 for 5 hours. In a 96-well cell culture plate, 100 μl of luciferase assay solution (Promega, # E6110) was added to each well. The plate was placed in the dark at room temperature for 10-15 minutes, blowed and aspirated 10 times, and 100 μl were pipetted to a 96 well white plate. The chemiluminescence signal values were read in a microplate reader (PE, Victor3), and the read data was processed using software.
The activity of the compounds of the present invention on agonizing MOR and affecting downstream cAMP levels was determined by the above test, and the EC50 values are shown in Table 1.1.
(In general: In a reporter assay the amount or activity of a reporter protein is the signal.)

A further assay concerns the target T2, hERG potassium channel (Homo sapiens, UniProt Q12809).
T2 construct: expressed in transfected cells; host or cells: HEK293
Nature of the assay: Blocking of hERG potassium current, automatic patch clamp on HEK293-hERG cells. The method, then:
The blocking effect of the compounds of the present invention and the positive compound TRV-130 (Journal of Pharmacology and Experimental Therapeutics, Volume 344, Issue 3, Pages 708-717, 2013) on hERG potassium current was tested on a stable cell line transfected with hERG potassium channel using an automatic patch clamp.
HEK293-hERG stabilized cells were subcultured at a density of 1:4 in a MEM/EBSS medium (10% FBS, 400 μg/ml G418, 1% MEM nonessential amino acid solution (100×), 1% sodium pyruvate solution) for 48-72 hours, then the automatic patch clamp experiment was performed. The cells were digested with 0.25% trypsin on the day of the experiment, then the cells were collected by centrifugation and resuspended with extracellular fluid (140 mM NaCl, 4 mM KCl, 1 mM MgCl2, 2 mM CaCl2, 5 mM D-glucose monohydrate, 10 mM Hepes, pH 7.4, 298 mOsmol) into a cell suspension. The cell suspension was placed on the cell bank of the Patchliner instrument, and the cells were added to the chip (NPC-16) by the negative pressure controller of the Patchliner instrument, with negative pressure attracting individual cells to the small hole of the chip. After the whole cell model was formed, the instrument generated the hERG current according to the preset hERG current and voltage program, and then the instrument perfused the compound from low concentration to high concentration automatically. HEAK Patchmaster, HEAK EPC10 patch clamp amplifier (Nanion), Pathliner software, and a data analysis software provided by Pathcontrol HTsoftware were used to analyze the current of the compounds at different concentrations and the current of the blank control.
The blocking effect of the compounds of the present invention on hERG potassium current was determined by the above test, and the IC50 values are shown in Table 3.
(The hERG channel carries a current that helps repolarise heart muscle cells.)

A further assay addresses T3, MOR receptor (Homo sapiens, UniProt P35372).
T3 construct: host or cells: CHO-K1
Nature of the assay: Activation of the β-arrestin signaling pathway of MOR receptor (CHO-K1 OPRM1 β-Arrestin cells, DiscoveRX). The following applies: for Emax: maximum effect of morphine is 100%. The method, then:
The experiment objective is to determine the activity of the compounds of the present invention on activating the β-arrestin signaling pathway of MOR receptor.
The drug was prepared as a 20 mM stock solution that was later diluted with 100% DMSO to a 200×concentration gradient, and then diluted with a 20-fold AssayComplete™ Cell Plating 2 Reagent (93-0563R2B, DiscoveRX) medium. The cell culture plate inoculated on the first day was taken out, and 10 μl of the diluted drug or control (0.5% DMSO) was added to each well. The plate was gently shaken and placed in an incubator at 37° C., 5% CO2 for 90 minutes. Finally, 50 μL of a detection reagent (93-0001, DiscoveRX) were added to each well, and the plate was placed at room temperature for 60 minutes. The absorbance values were measured by the cold light model of a microplate reader (PE, Victor3). The EC50 values of the compounds were calculated by Graphpad Prism software according to each concentration of the compound and the corresponding signal value.

Where [1] appears, read: HEK293/MOR/CRE cells, 5 h incubation, forskolin, read-out: EC50 on agonizing MOR receptor and affecting cAMP levels.
[2] abbreviates: CHO-K1 OPRM1 β-Arrestin cells, 90 minutes, read-out: EC50 on the β-arrestin signaling pathway.

pEC50, pIC50: −log10 of the molar value. Where two headings read alike, the source gives them in different places. Bounds are passed on as bounds.

T2 sequence (Q12809 whole entry): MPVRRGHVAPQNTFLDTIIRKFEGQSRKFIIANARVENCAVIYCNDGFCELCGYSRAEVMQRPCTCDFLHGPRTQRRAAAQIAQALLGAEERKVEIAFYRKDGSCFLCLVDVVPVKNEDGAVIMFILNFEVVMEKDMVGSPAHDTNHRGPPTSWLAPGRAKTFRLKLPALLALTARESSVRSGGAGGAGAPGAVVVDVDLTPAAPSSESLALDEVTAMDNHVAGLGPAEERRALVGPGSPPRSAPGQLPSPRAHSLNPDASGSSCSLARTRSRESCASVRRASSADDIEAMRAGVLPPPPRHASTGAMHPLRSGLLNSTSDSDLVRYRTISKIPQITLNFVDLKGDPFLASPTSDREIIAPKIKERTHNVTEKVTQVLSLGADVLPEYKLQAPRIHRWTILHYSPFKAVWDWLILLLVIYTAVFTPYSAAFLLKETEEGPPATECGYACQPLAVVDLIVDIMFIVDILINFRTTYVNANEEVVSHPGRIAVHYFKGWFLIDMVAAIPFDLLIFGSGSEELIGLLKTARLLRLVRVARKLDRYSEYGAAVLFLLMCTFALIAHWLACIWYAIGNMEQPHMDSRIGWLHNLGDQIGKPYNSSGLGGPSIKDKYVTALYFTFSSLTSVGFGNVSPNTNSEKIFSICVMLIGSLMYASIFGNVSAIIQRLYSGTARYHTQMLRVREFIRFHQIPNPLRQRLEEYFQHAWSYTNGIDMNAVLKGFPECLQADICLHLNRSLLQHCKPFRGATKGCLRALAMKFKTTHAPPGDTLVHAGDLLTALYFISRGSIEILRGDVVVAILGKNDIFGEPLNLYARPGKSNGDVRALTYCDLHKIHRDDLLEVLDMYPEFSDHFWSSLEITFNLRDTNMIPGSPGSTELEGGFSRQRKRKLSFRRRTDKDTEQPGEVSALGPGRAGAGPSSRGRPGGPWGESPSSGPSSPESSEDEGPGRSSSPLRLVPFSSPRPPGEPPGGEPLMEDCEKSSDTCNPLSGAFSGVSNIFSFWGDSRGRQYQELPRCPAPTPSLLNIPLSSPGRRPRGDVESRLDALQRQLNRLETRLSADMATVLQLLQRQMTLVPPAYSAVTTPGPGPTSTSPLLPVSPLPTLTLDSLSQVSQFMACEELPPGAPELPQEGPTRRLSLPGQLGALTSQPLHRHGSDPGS
T1 sequence (P35372 whole entry): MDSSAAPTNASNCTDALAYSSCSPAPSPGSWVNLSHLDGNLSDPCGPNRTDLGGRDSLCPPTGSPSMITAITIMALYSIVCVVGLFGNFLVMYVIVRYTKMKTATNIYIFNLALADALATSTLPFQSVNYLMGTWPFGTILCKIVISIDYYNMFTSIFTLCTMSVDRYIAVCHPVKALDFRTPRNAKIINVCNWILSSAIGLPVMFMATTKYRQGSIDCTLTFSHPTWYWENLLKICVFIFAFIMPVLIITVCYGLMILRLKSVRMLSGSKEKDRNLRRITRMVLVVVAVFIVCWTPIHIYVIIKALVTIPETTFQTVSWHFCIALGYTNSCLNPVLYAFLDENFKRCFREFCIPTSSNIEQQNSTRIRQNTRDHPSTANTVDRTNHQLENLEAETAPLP
T3 sequence (P35372 whole entry): as above

`c1ccc([C@]2(CCN[C@H]3CCOc4ccccc43)CCOC3(CCCC3)C2)nc1` (single isomer, unassigned) [Example 5]: on μ-opioid receptors (MOR), the pEC50 – broadly, −log10 of the EC50, conventionally taken in molar units – is 8.30 and the Emax (in general, the size of the effect at its maximum, as opposed to the concentration needed) worked out at 122%. The negative-log IC50 (pIC50) (in general, the negative decadic logarithm of the IC50, by convention in mol/L) against hERG potassium channel is 5.21.
On to `CCN1CC[C@@H](NCC[C@@]2(c3ccccn3)CCOC3(CCCC3)C2)c2ccccc21` [Example 2, (R)-1-ethyl-N-(2-((R)-9-(pyridin-2-yl)-6-oxaspiro[4.5]decan-9-yl)ethyl)-1,2,3,4-tetrahydroquinolin-4-amine], for which the pEC50 at μ-opioid receptors (MOR) (setting [1]) and at MOR receptor (setting [2]) was < 5.00 in each case. Moreover, the Emax at μ-opioid receptors (MOR) was determined as 0%; at MOR receptor, 4%.
As for `O[C@@H]1Cc2ccccc2[C@H]1NCC[C@@]1(c2ccccn2)CCOC2(CCCC2)C1` [Example 3, (1R,2R)-1-((2-((R)-9-(pyridin-2-yl)-6-oxaspiro[4.5]decan-9-yl)ethyl)amino)-2,3-dihydro-1H-inden-2-ol], at μ-opioid receptors (MOR), the negative-log EC50 (pEC50) was 8.70 and the Emax stood at 124%. The pIC50 at hERG potassium channel is < 4.52.
Regarding `CO[C@@H]1Cc2ccccc2[C@H]1NCC[C@@]1(c2ccccn2)CCOC2(CCCC2)C1` [Example 4, (1R,2R)-2-methoxy-N-(2-((R)-9-(pyridin-2-yl)-6-oxaspiro[4.5]decan-9-yl)ethyl)-2,3-dihydro-1H-inden-1-amine], at μ-opioid receptors (MOR), the pEC50 was 9.00 and the Emax was determined as 129%.
As for `c1ccc([C@]2(CCN[C@@H]3CCOc4ccccc43)CCOC3(CCCC3)C2)nc1` [Example 7, (R)-N-(2-((R)-9-(pyridin-2-yl)-6-oxaspiro[4.5]decan-9-yl)ethyl)chroman-4-amine], on μ-opioid receptors (MOR), the pEC50 was < 5.00 and the Emax worked out at 0%.
On the same counts, the results for `Fc1ccc2c(c1)C(NCC[C@@]1(c3ccccn3)CCOC3(CCCC3)C1)CCO2` (stereo partly drawn) [Example 8, 6-fluoro-N-(2-((R)-9-(pyridin-2-yl)-6-oxaspiro[4.5]decan-9-yl)ethyl)chroman-4-amine] are 8.52 and 114%.
In the same order, the values of `c1ccc([C@]2(CCN[C@@H]3CCCc4ccccc43)CCOC3(CCCC3)C2)nc1` [Example 9, (R)-N-(2-((R)-9-(pyridin-2-yl)-6-oxaspiro[4.5]decan-9-yl)ethyl)-1,2,3,4-tetrahydronaphthalen-1-amine] are < 5.00 and 48%.
On the same counts, the results for `c1ccc([C@]2(CCN[C@H]3CCCc4ccccc43)CCOC3(CCCC3)C2)nc1` [Example 10, (S)-N-(2-((R)-9-(pyridin-2-yl)-6-oxaspiro[4.5]decan-9-yl)ethyl)-1,2,3,4-tetrahydronaphthalen-1-amine] are 8.40 and 113%.
As to `c1ccc([C@]2(CCN[C@@H]3CCc4ccccc43)CCOC3(CCCC3)C2)nc1` [Example 15, (R)-N-(2-((R)-9-(pyridin-2-yl)-6-oxaspiro[4.5]decan-9-yl)ethyl)-2,3-dihydro-1H-inden-1-amine], on μ-opioid receptors (MOR), the pEC50 was < 5.00 and the Emax was found to be 0%.
In the same order, the values of `CO[C@H]1Cc2ccccc2[C@@H]1NCC[C@@]1(c2ccccn2)CCOC2(CCCC2)C1` [Example 17, (1S,2S)-2-methoxy-N-(2-((R)-9-(pyridin-2-yl)-6-oxaspiro[4.5]decan-9-yl)ethyl)-2,3-dihydro-1H-inden-1-amine] are < 5.00 and 0%.
In the case of `O[C@H]1Cc2ccccc2[C@@H]1NCCC1(c2ccccn2)CCOC2(CCCC2)C1` (stereo partly drawn) [Example 18, (1S,2S)-1-((2-(9-(pyridin-2-yl)-6-oxaspiro[4.5]decan-9-yl)ethyl)amino)-2,3-dihydro-1H-inden-2-ol], at μ-opioid receptors (MOR), the pEC50 is < 5.00 and the Emax was found to be 4%.
Regarding `COC[C@@H]1CC[C@H](NCC[C@@]2(c3ccccn3)CCOC3(CCCC3)C2)c2ccccc21` [Example 23, (1S,4R)-4-(methoxymethyl)-N-(2-((R)-9-(pyridin-2-yl)-6-oxaspiro[4.5]decan-9-yl)ethyl)-1,2,3,4-tetrahydronaphthalen-1-amine], on μ-opioid receptors (MOR), the pEC50 was 8.30 and the Emax was determined as 120%.
For `C=C1CC[C@H](NCC[C@@]2(c3ccccn3)CCOC3(CCCC3)C2)c2ccccc21` [Example 28, (S)-4-methylene-N-(2-((R)-9-(pyridin-2-yl)-6-oxaspiro[4.5]decan-9-yl)ethyl)-1,2,3,4-tetrahydronaphthalen-1-amine], on MOR receptor, the pEC50 was 7.82 and the Emax is 22%.
Regarding `N#CCO[C@H]1CC[C@H](NCC[C@@]2(c3ccccn3)CCOC3(CCCC3)C2)c2ccccc21` [Example 29, 2-(((1S,4S)-4-((2-((R)-9-(pyridin-2-yl)-6-oxaspiro[4.5]decan-9-yl)ethyl)amino)-1,2,3,4-tetrahydronaphthalen-1-yl)oxy)acetonitrile], the pEC50 on μ-opioid receptors (MOR) (setting [1]) is 8.15; at MOR receptor (setting [2]) it was 7.48. Also, the figures for the maximal effect (Emax) at μ-opioid receptors (MOR) and on MOR receptor were 112% and 32%, respectively.
On to `CO[C@@H]1CC[C@H](NCC[C@@]2(c3ccccn3)CCOC3(CCCC3)C2)c2ccccc21` [Example 30, (1S,4R)-4-methoxy-N-(2-((R)-9-(pyridin-2-yl)-6-oxaspiro[4.5]decan-9-yl)ethyl)-1,2,3,4-tetrahydronaphthalen-1-amine], for which, on μ-opioid receptors (MOR), the pEC50 was 8.70 and the Emax is 126%.
For `N#CCC1CC[C@H](NCC[C@@]2(c3ccccn3)CCOC3(CCCC3)C2)c2ccccc21` (stereo partly drawn) [Example 32, 2-((4S)-4-((2-((R)-9-(pyridin-2-yl)-6-oxaspiro[4.5]decan-9-yl)ethyl)amino)-1,2,3,4-tetra hydronaphthalen-1-yl)acetonitrile], on μ-opioid receptors (MOR) (setting [1]), the pEC50 is 9.10. Besides, at μ-opioid receptors (MOR), the Emax was 133%.
For the compound `c1ccc([C@]2(CCN[C@H]3CCC4(OCCO4)c4ccccc43)CCOC3(CCCC3)C2)nc1` [Example 33, (S)-N-(2-((R)-9-(pyridin-2-yl)-6-oxaspiro[4.5]decan-9-yl)ethyl)-3,4-dihydro-2H-spiro[naphthalen-1,2′-[1,3]dioxolane]-4-amine], the Emax at MOR receptor is 27%.
In the case of `CCCO[C@H]1CC[C@H](NCC[C@@]2(c3ccccn3)CCOC3(CCCC3)C2)c2ccccc21` [Example 34, (1S,4S)-4-propoxy-N-(2-((R)-9-(pyridin-2-yl)-6-oxaspiro[4.5]decan-9-yl)ethyl)-1,2,3,4-tetrahydronaphthalen-1-amine], on MOR receptor (setting [2]), the negative logarithm of the EC50 (pEC50) is 7.80. Moreover, the Emax on MOR receptor came out at 10%.
Compound `COc1ccsc1CNCC[C@@]1(c2ccccn2)CCOC2(CCCC2)C1` [TRV-130, reference compound] gave a pIC50 on hERG potassium channel of 5.80.
